From US5593970A, “Heterocyclic anthracycline analogs” (priority 1994, dated 1997)
Structures can show the parent of a compound that is named as a salt. Where two headings read alike, the source gives them in different places.

Key:
Assay in all cases: Microculture tetrazolium assay
Format in all cases: cell-based
SKOV3 = details: Homo sapiens, SK-OV-3, SKOV3
SKVLB = details: for VLB/OV3: IC50 ratio SKVLB/SKOV3; for IC50: SKVLB
T47D = details: Homo sapiens
LOX = tested on: LOX
HT29 = details: Homo sapiens, HT-29, HT29

Structure (SMILES)	IC50 (SKOV3; read-out: IC50)	VLB/OV3 (SKVLB)	IC50 (SKVLB; read-out: IC50)	IC50 (T47D; read-out: IC50)	IC50 (LOX; read-out: IC50)	IC50 (HT29; read-out: IC50)	IC50 (SKOV3)	IC50 (SKVLB)	IC50 (T47D)	IC50 (LOX)	IC50 (HT29)
C[C@@H]1O[C@@H](O[C@@H]2O[C@@H](S(=O)(=O)c3ccccc3)CC3=C2C(=O)c2cc4ccccc4c(O)c2C3=O)C[C@H](NC(=O)C(F)(F)F)[C@@H]1O [BCH-2001]	3060 nM	1.90	5820 nM	2590 nM	2490 nM	1380 nM	–	–	–	–	–
C[C@@H]1O[C@@H](O[C@@H]2OC=CC3=C2C(=O)c2cc4ccccc4c(O)c2C3=O)C[C@H](NC(=O)C(F)(F)F)[C@@H]1O [BCH-2002]	1240 nM	2.88	3570 nM	1460 nM	1750 nM	980 nM	–	–	–	–	–
C=CC[C@H]1CC2=C(C(=O)c3cc4ccccc4c(O)c3C2=O)[C@H](O[C@H]2C[C@H](N)[C@H](O)[C@H](C)O2)O1 [BCH-2006, (1'S,1S,3S)-3-(6-hydroxy-1-(2',3',6'-trideoxy-3'-amino-4'-hydroxy-L-lyxohexopyranose)-5,12-dioxo-3,4,5,12-tetrahydroanthraceno-[2,3-c]pyran-3-yl)propene hydrochloride]	882 nM	4.23	3730 nM	1920 nM	484 nM	410 nM	–	–	–	–	–
C[C@@H]1O[C@@H](O[C@H]2O[C@H](C#N)CC3=C2C(=O)c2cc4ccccc4c(O)c2C3=O)C[C@H](NC(=O)C(F)(F)F)[C@@H]1O [BCH-2007, (1'S,1R,3S)-3-(6-hydroxy-1-(2',3',6'-trideoxy-3'-trifluoroacetamido-4'-hydroxy-L-lyxohexopyranose)-5,12-dioxo-3,4,5,12-tetrahydroanthraceno-[2,3-c]pyran-3-yl)nitrile]	433 nM	6.44	2790 nM	506 nM	379 nM	148 nM	–	–	–	–	–
C[C@@H]1O[C@@H](O[C@@H]2O[C@@H](C#N)CC3=C2C(=O)c2cc4ccccc4c(O)c2C3=O)C[C@H](NC(=O)C(F)(F)F)[C@@H]1O [BCH-2008, (1'S,1S,3R)-3-(6-hydroxy-1-(2',3',6'-trideoxy-3'-trifluoroacetamido-4'-hydroxy-L-lyxohexopyranose)-5,12-dioxo-3,4,5,12-tetrahydroanthraceno-[2,3-c]pyran-3-yl)nitrile]	332 nM	6.57	2180 nM	387 nM	154 nM	62.5 nM	–	–	–	–	–
C[C@@H]1O[C@@H](O[C@H]2O[C@H](c3ccccc3)CC3=C2C(=O)c2cc4ccccc4c(O)c2C3=O)C[C@H](NC(=O)C(F)(F)F)[C@@H]1O [BCH-2010, (1S, 1R, 3S)-3-(6-hydroxy-1-(2',3',6'-trideoxy-3'-trifluoroacetamido-4'-hydroxy-L-lyxohexopyranose)-5,12-dioxo-3,4,5,12-tetrahydroanthraceno-[2,3-c]pyran-3-yl)benzene]	12700 nM	2.24	28500 nM	13500 nM	9250 nM	10700 nM	–	–	–	–	–
C[C@@H]1O[C@@H](O[C@H]2O[C@H](c3ccccc3)CC3=C2C(=O)c2cc4ccccc4c(O)c2C3=O)C[C@H](N)[C@@H]1O [BCH-2012, (1'S,1R,3S)-3-(6-hydroxy-1-(2',3',6'-trideoxy-3'-amino-4'-hydroxy-L-lyxohexopyranose)-5,12-dioxo-3,4,5,12-tetrahydroanthraceno-[2,3-c]pyran-3-yl)benzene hydrochloride]	2060 nM	1.96	4030 nM	954 nM	736 nM	565 nM	–	–	–	–	–
CC[C@@H]1Cc2c(O)c3c(c(O)c2[C@@H](O[C@H]2C[C@H](N)[C@H](O)[C@H](C)O2)O1)C(=O)c1ccccc1C3=O [BCH-2016, (1'S,1R, 3R)-3-ethyl-5,12-dihydroxy-1-(2',3',6'-trideoxy-3'-amino-L-lyxohexopyranose)-1,2,3,4-tetrahydro-(2-oxygen)-naphthacene-6,11-dione-hydrochloride]	93.4 nM	7.17	670 nM	345 nM	59.7 nM	130 nM	–	–	–	–	–
C[C@@H]1O[C@@H](O[C@H]2O[C@H](S(=O)(=O)c3ccccc3)CC3=C2C(=O)c2cc4ccccc4c(O)c2C3=O)C[C@H](NC(=O)C(F)(F)F)[C@@H]1O [BCH-2025]	–	3.15	6200 nM	3340 nM	1110 nM	644 nM	1970 nM	–	–	–	–
CC(=O)C1CC2=C(C(=O)c3cc4ccccc4c(O)c3C2=O)C(OC[C@@H](O)CO)O1 (stereo partly drawn) [BCH-2034]	2950 nM	2.54	–	7870 nM	1430 nM	2050 nM	–	7490 nM	–	–	–
CC(=O)[C@H]1CC2=C(C(=O)c3cc4ccccc4c(O)c3C2=O)[C@H](O[C@H]2O[C@H](CO)[C@@H](O)[C@H](O)[C@H]2NC(=O)N(CCCl)N=O)O1 [BCH-2039]	–	6.01	–	–	–	–	13500 nM	81200 nM	12600 nM	1550 nM	4430 nM
